{"source": "patent US20230263773A1", "about": "“COMBINATION THERAPY WITH DEOXYURIDINE TRIPHOSPHATASE INHIBITORS” (CV6 Therapeutics (NI) Limited, priority 2020, published 2023)", "test_system": "cytoplasmic dsDNA", "assay": "Cytoplasmic dsDNA by fluorescence microscopy", "type": "cell-based", "conditions": "12.5 μM Compound A, 1 μM FUdR; 24 hours", "method": "Experimental Overview. Aberrant host DNA metabolism as a result of failed cell division or genotoxic stress leads to the release of nuclear DNA into the cytoplasm and is a well-known damage-associated molecular pattern. The subsequent detection of cytoplasmic double-stranded DNA (dsDNA) by pattern recognition receptors triggers a variety of innate immune signaling and biological responses. HCT116 colon and PANC-1 pancreatic carcinoma cells were seeded on coverslips and treated with vehicle control (DMSO), 12.5 μM Compound A, 1 μM FUdR, or the combination of 12.5 μM Compound A and 1 μM FUdR for 24 hours. At 24 hours post-treatment cells were fixed and stained with an anti-dsDNA (double-stranded DNA) antibody and the nuclear stain DAPI. Immunofluorescence was detected and images acquired by fluorescence microscopy to quantify levels of dsDNA in the cytoplasm.\nCell lines, Drug Treatments and Fluorescence Microscopy. HCT116 colon and PANC-1 pancreatic carcinoma cells (5×10^4) were seeded onto glass coverslips within 24-well plates in relevant media. The following day, seeding media was removed and replaced with drug-containing media and incubated for 24 hours. At 24 […] hours post-treatment cells were fixed and processed. Briefly, cell membranes were permeabilised, incubated with FITC-conjugated dsDNA marker antibody (HYB331-01) from Santa Cruz Biotechnology, sc-58749 (1:500 dilution) and mounted onto slides with ProLong Gold antifade with DAPI (Invitrogen P36931). Images were acquired on a Nikon Fluorescent Microscope. Exposure time was selected for FITC using negative and positive controls and kept constant throughout image acquisition. Images were analyzed using ImageJ software. Cell nuclei were identified using DAPI staining. Intensity of cytoplasmic dsDNA staining was established by quantifying the intensity of the staining in the immediate area surrounding the nucleus. Software settings: Gaps to ring=3 and Ring size=25 (FIG. 16).", "data": [{"smiles": "C[C@@H](NS(=O)(=O)CCCCCN1CC(=O)NC1=O)c1ccc(F)c(OCC2CC2)c1", "note": "[Compound A]", "values": [{"measurement": "increase in mean relative cytoplasmic DNA compared to vehicle-treated control, HCT116 cells", "result": "no statistically significant difference"}, {"measurement": "increase in mean relative cytoplasmic DNA compared to vehicle-treated control, PANC-1 cells", "result": 74, "unit": "%"}]}, {"smiles": "O=c1[nH]c(=O)n([C@H]2C[C@H](O)[C@@H](CO)O2)cc1F", "note": "[FUdR]", "values": [{"measurement": "increase in mean relative cytoplasmic DNA compared to vehicle-treated control, HCT116 cells", "result": "no statistically significant difference"}, {"measurement": "increase in mean relative cytoplasmic DNA compared to vehicle-treated control, PANC-1 cells", "result": 56, "unit": "%"}]}]}
